Tests used:
Assay in all cases: relative viability (nuclei count vs DMSO), 5 days (fraction); higher = more cells survive
Imatinib + Olaparib = compound: Cc1ccc(NC(=O)c2ccc(CN3CCN(C)CC3)cc2)cc1Nc1nccc(-c2cccnc2)n1 [Imatinib] + O=C(c1cc(Cc2n[nH]c(=O)c3ccccc23)ccc1F)N1CCN(C(=O)C2CC2)CC1 [Olaparib] (partner 8 µM)
In short: (§1)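 Relative viability equals treated-well nuclei counts divided by vehicle-well nuclei counts. Counts came from 4× images of lung cancer cell lines grown in 1536-well plates for 5 days after pin-tool dosing on the day after seeding. Dosing used one drug alone or a fixed anchor-drug dose plus five library-drug doses (not always all listed) in √10 steps, and values are medians of duplicate plates.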

Imatinib + Navitoclax = compound: Cc1ccc(NC(=O)c2ccc(CN3CCN(C)CC3)cc2)cc1Nc1nccc(-c2cccnc2)n1 [Imatinib] + CC1(C)CCC(c2ccc(Cl)cc2)=C(CN2CCN(c3ccc(C(=O)NS(=O)(=O)c4ccc(N[C@H](CCN5CCOCC5)CSc5ccccc5)c(S(=O)(=O)C(F)(F)F)c4)cc3)CC2)C1 [Navitoclax] (partner 0.5 µM)
In short: as §1

Imatinib + Pictilisib = compound: Cc1ccc(NC(=O)c2ccc(CN3CCN(C)CC3)cc2)cc1Nc1nccc(-c2cccnc2)n1 [Imatinib] + CS(=O)(=O)N1CCN(Cc2cc3nc(-c4cccc5[nH]ncc45)nc(N4CCOCC4)c3s2)CC1 [Pictilisib] (partner 1 µM)
In short: as §1

Imatinib + Lapatinib = compound: Cc1ccc(NC(=O)c2ccc(CN3CCN(C)CC3)cc2)cc1Nc1nccc(-c2cccnc2)n1 [Imatinib] + CS(=O)(=O)CCNCc1ccc(-c2ccc3ncnc(Nc4ccc(OCc5cccc(F)c5)c(Cl)c4)c3c2)o1 [Lapatinib] (partner 2 µM)
In short: as §1

Imatinib + Phenformin = compound: Cc1ccc(NC(=O)c2ccc(CN3CCN(C)CC3)cc2)cc1Nc1nccc(-c2cccnc2)n1 [Imatinib] + N=C(N)NC(=N)NCCc1ccccc1 [Phenformin] (partner 250 µM)
In short: as §1

Imatinib + Decitabine = compound: Cc1ccc(NC(=O)c2ccc(CN3CCN(C)CC3)cc2)cc1Nc1nccc(-c2cccnc2)n1 [Imatinib] + Nc1ncn([C@H]2C[C@H](O)[C@@H](CO)O2)c(=O)n1 [Decitabine] (partner 2 µM)
In short: as §1

Imatinib + Linsitinib = compound: Cc1ccc(NC(=O)c2ccc(CN3CCN(C)CC3)cc2)cc1Nc1nccc(-c2cccnc2)n1 [Imatinib] + C[C@]1(O)C[C@@H](c2nc(-c3ccc4ccc(-c5ccccc5)nc4c3)c3c(N)nccn32)C1 [Linsitinib] (partner 1 µM)
In short: as §1

Imatinib + Alpelisib = compound: Cc1ccc(NC(=O)c2ccc(CN3CCN(C)CC3)cc2)cc1Nc1nccc(-c2cccnc2)n1 [Imatinib] + Cc1nc(NC(=O)N2CCC[C@H]2C(N)=O)sc1-c1ccnc(C(C)(C)C(F)(F)F)c1 [Alpelisib] (partner 2 µM)
In short: as §1

Imatinib = compound: Cc1ccc(NC(=O)c2ccc(CN3CCN(C)CC3)cc2)cc1Nc1nccc(-c2cccnc2)n1 [Imatinib]
In short: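 Viability was defined as treated-well nuclei divided by vehicle-well nuclei, with the median taken over replicate plates. Cells from lung cancer lines sat overnight at 37 °C in 1536-well plates, received five √10-spaced library-drug doses by pinning on vehicle-anchored plates, and grew 5 days without medium change before one-step fixation, permeabilisation and Hoechst staining, 4× imaging and MetaXpress nuclear counts. Only plates with control CV under 25% and at least one doubling were kept.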

Imatinib + Crizotinib = compound: Cc1ccc(NC(=O)c2ccc(CN3CCN(C)CC3)cc2)cc1Nc1nccc(-c2cccnc2)n1 [Imatinib] + C[C@@H](Oc1cc(-c2cnn(C3CCNCC3)c2)cnc1N)c1c(Cl)ccc(F)c1Cl [Crizotinib] (partner 1 µM)
In short: as §1

Imatinib + Bortezomib = compound: Cc1ccc(NC(=O)c2ccc(CN3CCN(C)CC3)cc2)cc1Nc1nccc(-c2cccnc2)n1 [Imatinib] + CC(C)C[C@H](NC(=O)[C@H](Cc1ccccc1)NC(=O)c1cnccn1)B(O)O [Bortezomib] (partner 0.002 µM)
In short: as §1

Imatinib + Foretinib = compound: Cc1ccc(NC(=O)c2ccc(CN3CCN(C)CC3)cc2)cc1Nc1nccc(-c2cccnc2)n1 [Imatinib] + COc1cc2c(Oc3ccc(NC(=O)C4(C(=O)Nc5ccc(F)cc5)CC4)cc3F)ccnc2cc1OCCCN1CCOCC1 [Foretinib] (partner 0.25 µM)
In short: as §1

Imatinib + Vorinostat = compound: Cc1ccc(NC(=O)c2ccc(CN3CCN(C)CC3)cc2)cc1Nc1nccc(-c2cccnc2)n1 [Imatinib] + O=C(CCCCCCC(=O)Nc1ccccc1)NO [Vorinostat] (partner 1 µM)
In short: as §1

## A549
Imatinib + Olaparib; first compound 0.02 µM
  relative viability: 0.472
Imatinib + Olaparib; first compound 0.2 µM
  relative viability: 0.299
Imatinib + Olaparib; first compound 0.6325 µM
  relative viability: 0.307
Imatinib + Olaparib; first compound 2 µM
  relative viability: 0.42
Imatinib + Navitoclax; first compound 0.02 µM
  relative viability: 1.31
Imatinib + Navitoclax; first compound 0.06325 µM
  relative viability: 1.53
Imatinib + Navitoclax; first compound 0.2 µM
  relative viability: 1.55
Imatinib + Navitoclax; first compound 0.6325 µM
  relative viability: 1.18
Imatinib + Navitoclax; first compound 2 µM
  relative viability: 1.17
Imatinib + Pictilisib; first compound 0.02 µM
  relative viability: 0.729
Imatinib + Pictilisib; first compound 0.06325 µM
  relative viability: 0.703
Imatinib + Pictilisib; first compound 0.2 µM
  relative viability: 0.545
Imatinib + Pictilisib; first compound 0.6325 µM
  relative viability: 0.553
Imatinib + Pictilisib; first compound 2 µM
  relative viability: 0.466
Imatinib + Lapatinib; first compound 0.02 µM
  relative viability: 1.09
Imatinib + Lapatinib; first compound 0.06325 µM
  relative viability: 1.13
Imatinib + Lapatinib; first compound 0.2 µM
  relative viability: 1.11
Imatinib + Lapatinib; first compound 0.6325 µM
  relative viability: 1.07
Imatinib + Lapatinib; first compound 2 µM
  relative viability: 0.99
Imatinib + Phenformin; first compound 0.02 µM
  relative viability: 0.178
Imatinib + Phenformin; first compound 0.2 µM
  relative viability: 0.154
Imatinib + Phenformin; first compound 0.6325 µM
  relative viability: 0.159
Imatinib + Phenformin; first compound 2 µM
  relative viability: 0.135
Imatinib + Decitabine; first compound 0.02 µM
  relative viability: 0.287
Imatinib + Decitabine; first compound 0.2 µM
  relative viability: 0.355
Imatinib + Decitabine; first compound 0.6325 µM
  relative viability: 0.32
Imatinib + Decitabine; first compound 2 µM
  relative viability: 0.222
Imatinib + Linsitinib; first compound 0.02 µM
  relative viability: 0.673
Imatinib + Linsitinib; first compound 0.2 µM
  relative viability: 0.636
Imatinib + Linsitinib; first compound 0.6325 µM
  relative viability: 0.699
Imatinib + Linsitinib; first compound 2 µM
  relative viability: 0.753
Imatinib + Alpelisib; first compound 0.02 µM
  relative viability: 0.793
Imatinib + Alpelisib; first compound 0.06325 µM
  relative viability: 0.841
Imatinib + Alpelisib; first compound 0.6325 µM
  relative viability: 0.722
Imatinib + Alpelisib; first compound 2 µM
  relative viability: 0.949
Imatinib; 0.02 µM
  relative viability: 1
Imatinib; 0.06325 µM
  relative viability: 0.846
Imatinib; 0.2 µM
  relative viability: 1.19
Imatinib; 0.6325 µM
  relative viability: 0.973
Imatinib; 2 µM
  relative viability: 0.99

## Calu-6
Imatinib + Crizotinib; first compound 0.02 µM
  relative viability: 1.09
Imatinib + Crizotinib; first compound 0.06325 µM
  relative viability: 1.17
Imatinib + Crizotinib; first compound 0.2 µM
  relative viability: 0.985
Imatinib + Crizotinib; first compound 0.6325 µM
  relative viability: 0.818
Imatinib + Crizotinib; first compound 2 µM
  relative viability: 0.652
Imatinib + Olaparib; first compound 0.02 µM
  relative viability: 0.658
Imatinib + Olaparib; first compound 0.06325 µM
  relative viability: 0.628
Imatinib + Olaparib; first compound 0.2 µM
  relative viability: 0.673
Imatinib + Olaparib; first compound 0.6325 µM
  relative viability: 0.575
Imatinib + Olaparib; first compound 2 µM
  relative viability: 0.549
Imatinib + Bortezomib; first compound 0.02 µM
  relative viability: 1.13
Imatinib + Bortezomib; first compound 0.06325 µM
  relative viability: 1.06
Imatinib + Bortezomib; first compound 0.2 µM
  relative viability: 1.01
Imatinib + Bortezomib; first compound 0.6325 µM
  relative viability: 1.08
Imatinib + Bortezomib; first compound 2 µM
  relative viability: 0.867
Imatinib + Foretinib; first compound 0.02 µM
  relative viability: 1.08
Imatinib + Foretinib; first compound 0.06325 µM
  relative viability: 1.01
Imatinib + Foretinib; first compound 0.2 µM
  relative viability: 1.01
Imatinib + Foretinib; first compound 0.6325 µM
  relative viability: 0.925
Imatinib + Foretinib; first compound 2 µM
  relative viability: 0.891
Imatinib + Navitoclax; first compound 0.02 µM
  relative viability: 0.976
Imatinib + Navitoclax; first compound 0.06325 µM
  relative viability: 0.804
Imatinib + Navitoclax; first compound 0.2 µM
  relative viability: 0.777
Imatinib + Navitoclax; first compound 0.6325 µM
  relative viability: 0.85
Imatinib + Navitoclax; first compound 2 µM
  relative viability: 0.814
Imatinib + Pictilisib; first compound 0.02 µM
  relative viability: 1.18
Imatinib + Pictilisib; first compound 0.06325 µM
  relative viability: 1.11
Imatinib + Pictilisib; first compound 0.2 µM
  relative viability: 1.16
Imatinib + Pictilisib; first compound 0.6325 µM
  relative viability: 0.887
Imatinib + Pictilisib; first compound 2 µM
  relative viability: 0.89
Imatinib + Lapatinib; first compound 0.02 µM
  relative viability: 1.24
Imatinib + Lapatinib; first compound 0.06325 µM
  relative viability: 1.23
Imatinib + Lapatinib; first compound 0.2 µM
  relative viability: 1.27
Imatinib + Lapatinib; first compound 0.6325 µM
  relative viability: 1.16
Imatinib + Lapatinib; first compound 2 µM
  relative viability: 1.13
Imatinib + Linsitinib; first compound 0.02 µM
  relative viability: 0.993
Imatinib + Linsitinib; first compound 0.06325 µM
  relative viability: 0.997
Imatinib + Linsitinib; first compound 0.2 µM
  relative viability: 1.07
Imatinib + Linsitinib; first compound 0.6325 µM
  relative viability: 0.967
Imatinib + Linsitinib; first compound 2 µM
  relative viability: 1.04
Imatinib + Alpelisib; first compound 0.02 µM
  relative viability: 1.1
Imatinib + Alpelisib; first compound 0.2 µM
  relative viability: 1.11
Imatinib + Alpelisib; first compound 0.6325 µM
  relative viability: 1.01
Imatinib + Alpelisib; first compound 2 µM
  relative viability: 0.946
Imatinib; 0.02 µM
  relative viability: 1.08
Imatinib; 0.06325 µM
  relative viability: 1.08
Imatinib; 0.2 µM
  relative viability: 1.16
Imatinib; 0.6325 µM
  relative viability: 1.06
Imatinib; 2 µM
  relative viability: 1.02

## IA-LM
Imatinib + Crizotinib; first compound 0.02 µM
  relative viability: 0.991
Imatinib + Crizotinib; first compound 0.06325 µM
  relative viability: 0.744
Imatinib + Crizotinib; first compound 0.2 µM
  relative viability: 0.999
Imatinib + Crizotinib; first compound 0.6325 µM
  relative viability: 0.781
Imatinib + Crizotinib; first compound 2 µM
  relative viability: 0.735
Imatinib + Olaparib; first compound 0.02 µM
  relative viability: 0.917
Imatinib + Olaparib; first compound 0.06325 µM
  relative viability: 0.884
Imatinib + Olaparib; first compound 0.2 µM
  relative viability: 0.996
Imatinib + Olaparib; first compound 0.6325 µM
  relative viability: 0.977
Imatinib + Olaparib; first compound 2 µM
  relative viability: 0.734
Imatinib + Bortezomib; first compound 0.02 µM
  relative viability: 0.767
Imatinib + Bortezomib; first compound 0.06325 µM
  relative viability: 1.03
Imatinib + Bortezomib; first compound 0.2 µM
  relative viability: 0.937
Imatinib + Bortezomib; first compound 0.6325 µM
  relative viability: 0.744
Imatinib + Bortezomib; first compound 2 µM
  relative viability: 0.784
Imatinib + Foretinib; first compound 0.02 µM
  relative viability: 1.34
Imatinib + Foretinib; first compound 0.06325 µM
  relative viability: 1.2
Imatinib + Foretinib; first compound 0.2 µM
  relative viability: 1.06
Imatinib + Foretinib; first compound 0.6325 µM
  relative viability: 1.4
Imatinib + Foretinib; first compound 2 µM
  relative viability: 1.17
Imatinib + Navitoclax; first compound 0.02 µM
  relative viability: 0.909
Imatinib + Navitoclax; first compound 0.06325 µM
  relative viability: 0.813
Imatinib + Navitoclax; first compound 0.2 µM
  relative viability: 1.05
Imatinib + Navitoclax; first compound 0.6325 µM
  relative viability: 0.83
Imatinib + Navitoclax; first compound 2 µM
  relative viability: 0.754
Imatinib + Pictilisib; first compound 0.02 µM
  relative viability: 0.431
Imatinib + Pictilisib; first compound 0.06325 µM
  relative viability: 0.497
Imatinib + Pictilisib; first compound 0.2 µM
  relative viability: 0.317
Imatinib + Pictilisib; first compound 0.6325 µM
  relative viability: 0.586
Imatinib + Pictilisib; first compound 2 µM
  relative viability: 0.373
Imatinib + Lapatinib; first compound 0.02 µM
  relative viability: 1.01
Imatinib + Lapatinib; first compound 0.06325 µM
  relative viability: 1.23
Imatinib + Lapatinib; first compound 0.2 µM
  relative viability: 0.656
Imatinib + Lapatinib; first compound 0.6325 µM
  relative viability: 1.31
Imatinib + Lapatinib; first compound 2 µM
  relative viability: 0.719
Imatinib + Linsitinib; first compound 0.02 µM
  relative viability: 0.688
Imatinib + Linsitinib; first compound 0.06325 µM
  relative viability: 0.652
Imatinib + Linsitinib; first compound 0.2 µM
  relative viability: 0.561
Imatinib + Linsitinib; first compound 0.6325 µM
  relative viability: 1.38
Imatinib + Linsitinib; first compound 2 µM
  relative viability: 0.593
Imatinib + Vorinostat; first compound 0.06325 µM
  relative viability: 0.357
Imatinib + Vorinostat; first compound 0.2 µM
  relative viability: 1.14
Imatinib + Vorinostat; first compound 0.6325 µM
  relative viability: 1.16
Imatinib + Vorinostat; first compound 2 µM
  relative viability: 0.923
Imatinib + Alpelisib; first compound 0.02 µM
  relative viability: 0.838
Imatinib + Alpelisib; first compound 0.06325 µM
  relative viability: 1.1
Imatinib + Alpelisib; first compound 0.2 µM
  relative viability: 0.928
Imatinib + Alpelisib; first compound 0.6325 µM
  relative viability: 0.967
Imatinib + Alpelisib; first compound 2 µM
  relative viability: 0.702
Imatinib; 0.02 µM
  relative viability: 1.04
Imatinib; 0.06325 µM
  relative viability: 1.02
Imatinib; 0.2 µM
  relative viability: 0.936
Imatinib; 0.6325 µM
  relative viability: 1.27
Imatinib; 2 µM
  relative viability: 0.853
